Assay results reported in ChEMBL document CHEMBL5390209, “Spinosyn A and Its Derivative Inhibit Colorectal Cancer Cell Growth via the EGFR Pathway” (J Nat Prod, 2023).
Active and inactive are the calls of the source. The calls are words filed in the database; no cut-off is given here.

Legend:
[1] = tested on: HT-29; assay: Antitumor activity against human HT-29 cells xenografted Balb/c mouse assessed as inhibited tumor growth at 10 mg/kg/day, ip administrated for twice a week and measured after 6 days; type: functional, organism-based; conditions: time 6.0 day
[2] = Toxicity in human HT-29 cells xenografted Balb/c mouse assessed as change in body weight at 10 mg/kg/day, ip administrated for twice a week and measured after 6 days; type: organism-based; conditions: in vivo, 144 h, time 6 day
[3] = tested on: HT-29; assay: Antitumor activity against human HT-29 cells xenografted Balb/c mouse assessed as reduction in tumor growth at 10 mg/kg/day, ip administrated for twice a week and measured after 28 days; type: functional, organism-based; conditions: time 28.0 day
[4] = tested on: HT-29; assay: Antitumor activity against human HT-29 cells xenografted Balb/c mouse assessed as reduction in tumor cell density at 10 mg/kg/day, ip administrated for twice a week and measured after 28 days by Hematoxylin and Eosin staining based method; type: functional, organism-based; conditions: time 28.0 day
[5] = tested on: HT-29; assay: Antitumor activity against human HT-29 cells xenografted Balb/c mouse assessed as reduction in Ki67 expression level at 10 mg/kg/day, ip administrated for twice a week and measured after 28 days by immunohistochemistry staining method; type: functional, organism-based; conditions: time 28.0 day
[6] = Toxicity in human HT-29 cells xenografted Balb/c mouse assessed as change in liver pathology at 10 mg/kg/day, ip administrated for twice a week and measured after 28 days; type: organism-based; conditions: in vivo, 672 h, time 28 day
[7] = Toxicity in human HT-29 cells xenografted Balb/c mouse assessed as change in heart pathology at 10 mg/kg/day, ip administrated for twice a week and measured after 28 days; type: organism-based; conditions: in vivo, 672 h, time 28 day
[8] = Toxicity in human HT-29 cells xenografted Balb/c mouse assessed as change in spleen pathology at 10 mg/kg/day, ip administrated for twice a week and measured after 28 days; type: organism-based; conditions: in vivo, 672 h, time 28 day
[9] = Toxicity in human HT-29 cells xenografted Balb/c mouse assessed as change in lung pathology at 10 mg/kg/day, ip administrated for twice a week and measured after 28 days; type: organism-based; conditions: in vivo, 672 h, time 28 day
[10] = Toxicity in human HT-29 cells xenografted Balb/c mouse assessed as change in kidney pathology at 10 mg/kg/day, ip administrated for twice a week and measured after 28 days; type: organism-based; conditions: in vivo, 672 h, time 28 day
[11] = tested on: HT-29; assay: Inhibition of EGFR in human HT-29 cells xenografted in BALB/c nude mouse assessed as EGFR protein level in tumor at 10 mg/kg/day, ip administrated for twice a week and measured after 28 days by Western blotting analysis; type: functional, organism-based; conditions: time 28.0 day
[12] = tested on: HT-29; assay: Inhibition of HER2 in human HT-29 cells xenografted in BALB/c nude mouse assessed as HER2 protein level in tumor at 10 mg/kg/day, ip administrated for twice a week and measured after 28 days by Western blotting analysis; type: functional, organism-based; conditions: time 28.0 day
[13] = tested on: HT-29; assay: Inhibition of EGFR in human HT-29 cells xenografted in BALB/c nude mouse assessed as reduction in EGFR protein expression level in tumor at 10 mg/kg/day, ip administrated for twice a week and measured after 28 days by Western blotting analysis; type: functional, organism-based; conditions: time 28.0 day
[14] = tested on: HT-29; assay: Inhibition of HER2 in human HT-29 cells xenografted in BALB/c nude mouse assessed as HER2 protein expression level in tumor at 10 mg/kg/day, ip administrated for twice a week and measured after 28 days by Western blotting analysis; type: functional, organism-based; conditions: time 28.0 day

O=c1[nH]cc(F)c(=O)[nH]1 [FLUOROURACIL]
inhibition [1]: Active | Activity [2]: Non-Toxic | Activity [3]: Active | Activity [4]: Active | Activity [5]: Active | Activity [6]: Non-Toxic | Activity [7]: Non-Toxic | Activity [8]: Non-Toxic | Activity [9]: Non-Toxic | Activity [10]: Non-Toxic | inhibition [11]: Active | inhibition [12]: inactive | inhibition [13]: Active | inhibition [14]: inactive
